Peptide text beside a SMILES is read from it.
Legend:
[1] = design: species or system C3H/S-strain mice; details: mouse, in vivo
Protocol: Figure 8 NLS18-TEAD has anti-tumoral effect on breast cancer xenograft models. (a) C3H/S-strain mice subcutaneously inoculated with 4 × 10^5 TN60-UNLP cells were intraperitoneally treated with 5 mg/kg of NLS18-TEAD or NLS23-TEAD 5 days per week for 4 weeks. Control mice received NaCl. Tumor growth was monitored each other day. The average tumor volume of each group (8 mice per group) is shown (p < 0.018). (b) The weight of the animals and the organs upon 30 days of treatment with the peptides NLS18-TEAD or NLS23-TEAD is shown. Control non-treated mice are also shown. p and t statistic values are shown. […]

[2] = Peptide integrity in human serum (resistance to proteases degradation); format: in vitro ADME; details: human serum 250 μl, 37 °C, different times, upon 6 h; MALDI-TOF MS; triplicate
Protocol: Figure 7 Stability of the new generated peptides in human serum. Peptides were incubated at 37 °C in human serum for different periods of time and their integrity (percentage of intact peptide) was analyzed by mass spectrometry (MS). Every measurement was performed in triplicate. Standard deviation is shown.
Peptides were incubated at 37 °C in 250 μl of human serum for several times. Samples were collected and peptide degradation stopped by freezing. Peptides were extracted from samples using the Proteo Miner Protein Enrichment System (Bio-Rad, California, USA). Percentage of intact peptide was estimated by mass spectrometry (MS) using MALDI-TOFF (Brucker Autoflex II, Massachusetts, USA) following their protocols. Measurements were performed in triplicates. MS data were analyzed using appropriated software (Clinprot tools, FLEx analysis, Brucker, Massachusetts, USA) as previously described[8],[9].

Clinical symptoms in the injected animals compared to control non-treated animals [1] | Stability to proteases degradation in human serum (percentage of intact peptide) [2] | SMILES
did not detected clinical symptoms | constant stability | CC(C)C[C@H](NC(=O)[C@H](CCCCN)NC(=O)[C@H](CCCCN)NC(=O)[C@H](CCCCN)NC(=O)[C@H](CCCCN)NC(=O)[C@@H]1CCCN1C(=O)[C@H](Cc1c[nH]c2ccccc12)NC(=O)[C@H](CCCCN)NC(=O)[C@H](CCCCN)NC(=O)[C@H](Cc1c[nH]c2ccccc12)NC(=O)[C@H](CCCCN)NC(=O)[C@H](CCCCN)NC(=O)[C@H](CCCCN)NC(=O)[C@H](CCCCN)NC(=O)[C@H](CCCCN)NC(=O)[C@H](CCCNC(=N)N)NC(=O)[C@H](CCCCN)NC(=O)[C@@H](N)CCCNC(=N)N)C(=O)N[C@@H](CC(=O)O)C(=O)N[C@@H](CCCNC(=N)N)C(=O)N[C@@H](CC(C)C)C(=O)N[C@@H](CCC(N)=O)C(=O)N[C@@H](CC(C)C)C(=O)N[C@H](C(=O)N[C@@H](CCC(=O)O)C(=O)N[C@@H](Cc1ccccc1)C(=O)N[C@@H](CO)C(=O)N[C@@H](C)C(=O)N[C@@H](Cc1ccccc1)C(=O)N[C@H](C(=O)N[C@@H](CCC(=O)O)C(=O)N1CCC[C@H]1C(=O)N1CCC[C@H]1C(=O)N[C@@H](CC(=O)O)C(=O)N[C@@H](C)C(=O)N[C@H](C(=O)N[C@@H](CC(=O)O)C(=O)O)C(C)C)C(C)C)C(C)C [NLS18-TEAD] (H-RKRKKKKKWKKWPKKKKLDRLQLVEFSAFVEPPDAVD-OH)
did not detected clinical symptoms |  | CC(C)C[C@H](NC(=O)[C@H](CCCCN)NC(=O)[C@H](CCCCN)NC(=O)[C@H](CCCCN)NC(=O)[C@H](CCCCN)NC(=O)[C@@H]1CCCN1C(=O)[C@H](CCCCN)NC(=O)[C@H](CCCCN)NC(=O)[C@H](CCCCN)NC(=O)[C@H](Cc1c[nH]c2ccccc12)NC(=O)[C@H](CCCCN)NC(=O)[C@H](CCCCN)NC(=O)[C@H](Cc1c[nH]c2ccccc12)NC(=O)[C@H](CCCCN)NC(=O)[C@H](CCCCN)NC(=O)[C@H](CCCCN)NC(=O)[C@H](CCCCN)NC(=O)[C@H](CCCCN)NC(=O)[C@H](CCCNC(=N)N)NC(=O)[C@H](CCCCN)NC(=O)[C@@H](N)CCCNC(=N)N)C(=O)N[C@@H](CC(=O)O)C(=O)N[C@@H](CCCNC(=N)N)C(=O)N[C@@H](CC(C)C)C(=O)N[C@@H](CCC(N)=O)C(=O)N[C@@H](CC(C)C)C(=O)N[C@H](C(=O)N[C@@H](CCC(=O)O)C(=O)N[C@@H](Cc1ccccc1)C(=O)N[C@@H](CO)C(=O)N[C@@H](C)C(=O)N[C@@H](Cc1ccccc1)C(=O)N[C@H](C(=O)N[C@@H](CCC(=O)O)C(=O)N1CCC[C@H]1C(=O)N1CCC[C@H]1C(=O)N[C@@H](CC(=O)O)C(=O)N[C@@H](C)C(=O)N[C@H](C(=O)N[C@@H](CC(=O)O)C(=O)O)C(C)C)C(C)C)C(C)C [NLS23-TEAD] (H-RKRKKKKKWKKWKKKPKKKKLDRLQLVEFSAFVEPPDAVD-OH)
